Reference: patent US20110207916A1, “Dual Affinity Polypeptides for Purification” (priority 2007, published 2011)

Experiments:
[1] = biological target: T1, AMG-Z (AMG(1-526aa)::Z, Aspergillus niger glucoamylase fused to Z domain of Staphylococcus aureus protein A, SEQ ID NO 25) (Aspergillus niger, UniProt P69328); test: Biacore SPR, binding of DAP AMG-Z to acarbose ligand (biotin-acarbose on SA chip)
T1 construct: made in house; host or cells: Aspergillus oryzae (transformant JaL1171 of host BECh2)
T1 sequence (P69328 25-526, added parts left off): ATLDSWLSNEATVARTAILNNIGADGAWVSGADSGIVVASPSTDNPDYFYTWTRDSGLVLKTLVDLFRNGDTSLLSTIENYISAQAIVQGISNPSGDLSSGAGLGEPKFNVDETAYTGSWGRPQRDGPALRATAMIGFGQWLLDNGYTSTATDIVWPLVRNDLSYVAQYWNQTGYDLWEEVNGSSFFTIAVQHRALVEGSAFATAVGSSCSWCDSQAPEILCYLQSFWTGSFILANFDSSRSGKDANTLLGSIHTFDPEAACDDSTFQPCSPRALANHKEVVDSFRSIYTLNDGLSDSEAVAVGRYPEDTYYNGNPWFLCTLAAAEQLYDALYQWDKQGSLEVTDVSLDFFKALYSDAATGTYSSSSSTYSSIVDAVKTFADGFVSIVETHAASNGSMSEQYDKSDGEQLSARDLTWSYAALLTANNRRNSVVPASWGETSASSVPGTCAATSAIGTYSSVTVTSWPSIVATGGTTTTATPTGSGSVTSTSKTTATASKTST
Text: Immobilisation occurred by direct covalent coupling to the surface (using the Amine Coupling Kit, BiaCore, GE Health Care) or via a capturing molecule as prescribed by the manufacturer (BiaCore, GE Health Care). The amount of coupled target was quantified and expressed in Refractive Units (RU). […]

[2] = test system: VhhRR6(R2)-Z + IgG (variable region of Llama single chain antibody against RR6 fused to Z domain of Staphylococcus aureus protein A, SEQ ID NO 28, with IgG …); test: Biacore SPR, binding of DAP VhhRR6(R2)-Z to Reactive Red 6 ligand in the presence of IgG; conditions: Table 1 footnote b; VhhRR6(R2)-Z mixed with IgG before loading to the Biacore
Text: The commercialised surface plasmon resonance (SPR) technology for real time monitoring biomolecular binding event is used to measure the binding affinities for the prepared DAP candidates. The general principle of this technology is that a SPR sensor chip measures changes in refractive index, and the changes in refractive index correlate to changes in mass in the aqueous layer close to the sensor surface. When target molecules in solution bind to ligands, immobilised on the sensor surface, the mass increases, and when they dissociate from the ligands the mass decreases. This principle facilitates a continuous, real time monitoring of the association and dissociation of interacting molecules. The graphical presentation of the relationship provides quantitative information in real time on the binding specificity, active concentration of molecule in a sample, reaction kinetics and affinity. […]
(§1) The DAP candidates were analysed for binding to the capturing ligand sensor chip and the target biomolecule sensor chip respectively. […]
Immobilisation occurred by direct covalent coupling to the surface (using the Amine Coupling Kit, BiaCore, GE Health Care) or via a capturing molecule as prescribed by the manufacturer (BiaCore, GE Health Care). The amount of coupled target was quantified and expressed in […] (RU). […]

[3] = test system: VhhRR6(R2)-Z (variable region of Llama single chain antibody against RR6 fused to Z domain of Staphylococcus aureus protein A, SEQ ID NO 28); test: Biacore SPR, binding of DAP VhhRR6(R2)-Z to Reactive Red 6 ligand (biotin-Reactive Red 6 on SA chip); conditions: Table 1 (summary, rounded)
Text: The commercialised surface plasmon resonance (SPR) technology for real time monitoring biomolecular binding event is used to measure the binding affinities for the prepared DAP candidates. The general principle of this technology is that a SPR sensor chip measures changes in refractive index, and the changes in refractive index correlate to changes in mass in the aqueous layer close to the sensor surface. When target molecules in solution bind to ligands, immobilised on the sensor surface, the mass increases, and when they dissociate from the ligands the mass decreases. This principle facilitates a continuous, real time monitoring of the association and dissociation of interacting molecules. The graphical presentation of the relationship provides quantitative information in real time on the binding specificity, active concentration of molecule in a sample, reaction kinetics and affinity.
In order to evaluate the binding affinities for both of the binding affinities present in the DAP either IgG or the capturing ligand had to be immobilized onto the sensor chip. For IgG rabbit anti-Mannanase was used and for the ligand the chip was coated with streptavidin and the ligand was then immobilized via biotin linked to the appropriate ligand.
In order to measure the binding to RR6 and acarbose the following compounds were prepared; biotin-linked acarbose and biotin-linked RR6.
The mixture was stirred at RT for 30 min. […]
as §1
Immobilisation occurred by direct covalent coupling to the surface (using the Amine Coupling Kit, BiaCore, GE Health Care) or via a capturing molecule as prescribed by the manufacturer (BiaCore, GE Health Care). The amount of coupled target was quantified and expressed in Refractive Units (RU).
Interactions were monitored by injecting samples (20 μl/min) over the prepared sensor surface of the chip. Unless stated otherwise, the binding was assessed in 10 mM sodium acetatbuffer pH 5.0 at room temperature. […]

Compound	kon ([1]; pH 5, read-out: Ligand binding ka) [M⁻¹ s⁻¹]	koff ([1]; pH 5, read-out: Ligand binding kd) [s⁻¹]	Kd [2] [µM]	binding after injection is stopped [2]	Kd [3] [µM]	Ligand binding ka [3] [M⁻¹ s⁻¹]	Ligand binding kd [3] [s⁻¹]
C[C@H]1O[C@H](O[C@H]2[C@H](O)[C@@H](O)[C@@H](O[C@H]3[C@H](O)[C@@H](O)C(O)O[C@@H]3CO)O[C@@H]2CO)[C@H](O)[C@@H](O)[C@@H]1N[C@H]1C=C(CO)[C@@H](O)[C@H](O)[C@H]1O (stereo partly shown) [Acarbose]	10000	0.002					
Reactive Red 6 [RR6]			10	the binding is broken completely as soon as the injection is stopped	0.2	20000	0.004
